Assay results taken from patent US8518989B2, “Prodrugs of short-chain fatty acids and treatment methods” (Georgia Health Sciences University Research Institute, Inc., priority 2005, dated 2013).
Read-outs that look alike come from different tables or passages of the source.

Experiments:
[1] = biological target: T1, human SLC5A8 (Homo sapiens, UniProt Q8N695, F251V/V193I); assay: Uptake of radiolabeled short-chain fatty acids in Xenopus oocytes injected with SLC5A8 cRNA; type: cell-based; parameters: Uptake, uninjected oocytes / Uptake, cRNA-injected oocytes: unit not given here; details: 1 h incubation; for Uptake, cRNA-injected oocytes: SLC5A8 cRNA-injected oocytes; for Uptake, uninjected oocytes: uninjected control oocytes
T1 construct: We amplified the coding region of SLC5A8 mRNA by RT-PCR using human intestinal mRNA as the template; expressed in transfected cells; host or cells: Xenopus laevis oocytes, 50 ng capped cRNA from the pGH19 construct
T1 sequence (Q8N695 1-610 V193I/F251V): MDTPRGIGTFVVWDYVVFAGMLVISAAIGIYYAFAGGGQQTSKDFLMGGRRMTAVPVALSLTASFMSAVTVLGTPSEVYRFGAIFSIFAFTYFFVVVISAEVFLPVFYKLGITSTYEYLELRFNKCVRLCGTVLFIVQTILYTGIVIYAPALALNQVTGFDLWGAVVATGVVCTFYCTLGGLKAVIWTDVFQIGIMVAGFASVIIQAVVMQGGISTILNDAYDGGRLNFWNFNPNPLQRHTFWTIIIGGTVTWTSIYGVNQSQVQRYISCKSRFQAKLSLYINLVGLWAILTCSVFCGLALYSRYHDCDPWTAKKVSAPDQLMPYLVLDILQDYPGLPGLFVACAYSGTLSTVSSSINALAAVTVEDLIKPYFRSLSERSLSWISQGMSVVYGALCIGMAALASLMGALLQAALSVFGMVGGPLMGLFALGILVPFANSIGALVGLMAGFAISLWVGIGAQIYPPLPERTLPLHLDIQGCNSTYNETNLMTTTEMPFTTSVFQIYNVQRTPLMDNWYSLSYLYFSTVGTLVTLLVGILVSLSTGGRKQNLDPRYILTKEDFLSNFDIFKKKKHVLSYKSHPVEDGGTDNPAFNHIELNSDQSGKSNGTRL
Procedure: (§1) The amplified human SLC5A8 cDNA was expressed heterologously in Xenopus oocytes by cRNA injection. Capped cRNA from SLC5A8 cDNA was synthesized using the mMESSAGE mMACHINE kit (Ambion Inc., Austin, Tex.). Mature oocytes (stage 1V or V) from Xenopus laevis were injected with 50 ng cRNA. Uninjected oocytes served as controls. The oocytes were used for uptake and electrophysiological studies 3-6 days after cRNA injection. Uptake of radiolabeled substrates in uninjected and cRNA-injected oocytes was determined as described previously (Fei, Y. J., et al., (1995) Biochemistry 34, 8744-8751).
(§2) Eight oocytes were used for each uptake measurement. Electrophysiological studies were performed by the two-microelectrode voltage clamp method (11. Wang, H., Fei, et al., (2000) Am. J. Physiol. 278:C1019-C1030; Inoue, K, et al. (2004) Biochem. J. 378:949-957).
Uptake of short-chain fatty acids in uninjected oocytes and in oocytes injected with SLC5A8 cRNA was measured with 1 h incubation. Concentration of substrates (labeled plus unlabeled) varied in the range of 50-500 μM depending on the specific radioactivity of the substrates. Eight oocytes were used for each uptake measurement. Data represent means±SE.

[2] = biological target: T1, human SLC5A8; assay: Two-microelectrode voltage clamp of substrate-induced currents in SLC5A8-expressing oocytes; type: cell-based; details: for K0.5 for SLC5A8: Na+ 100 mM
Procedure: as §1, §2
Oocytes were perfused with a NaCl-containing buffer (100 mM NaCl, 2 mM KCl, 1 mM MgCl2, 1 mM CaCl2, 3 mM Hepes, 3 mM Mes, and 3 mM Tris, pH 7.5), followed by the same buffer containing different fatty acids. The membrane potential was clamped at −50 mV. The differences between the steady-state currents measured in the presence and absence of substrates were considered as the substrate-induced currents. To investigate the current-membrane potential (I—V) relationship, step changes in membrane potential were applied, each for a duration of 100 ms in 20-mV increments. The kinetic parameter K0.5 (i.e. the substrate concentration necessary for the induction of half-maxima) current) was calculated by fitting the values of the substrate-induced currents to Michaelis-Menten equation. The Na^+-activation kinetics was analyzed by measuring the substrate-specific currents in the presence of increasing concentrations of Na^+. The data were analyzed by the Hill equation to determine the Hill coefficient (h; the number of Na^+ ions involved in the activation process). The kinetic parameters were determined using the computer program Sigma Plot, version 6.0 (SPSS, Inc., Chicago, Ill.). Electrophysiological measurements of substrate-induced currents were repeated at least four times with separate oocytes. The data are presented as means±S.E. of these replicates.
The charge-to substrate transfer ratio was determined for propionate in four different oocytes as described previously (Wang, H., et al. (2000) Am. J. Physiol. 278:C1019-C1030 12. Inoue, K., Fei, Y. J., Zhuang, L., Gopal, E., Miyauchi, S., and Ganapathy, V. (2004) Biochem. J. 378:949-957). The oocytes were perfused with 25 μM propionate (unlabeled plus radiolabeled propionate), and inward currents were monitored over a period of 8-10 min. At the end of the experiment, the amount of propionate transported into the oocytes was calculated by measuring the radioactivity associated with the oocytes. The area within the curve describing the relationship between the time and inward current was integrated to calculate the charge transferred into the oocyte during incubation with propionate. The values for substrate transfer and charge transfer were used to determine the charge to substrate transfer ratio.

[3] = biological target: T2, rat ATB^0,+ (Rattus norvegicus, UniProt Q334I2); assay: Substrate-induced inward currents in Xenopus oocytes expressing rat ATB0,+ (voltage clamp); type: cell-based; details: for Inward currents induced in ATB0,+-expressing oocytes (in words): 5 mM; for Inward currents induced in ATB0,+-expressing oocytes (in words) / K0.5 (substrate concentration for half-maximal current): voltage clamp; for K0.5 (substrate concentration for half-maximal current): ATB0,+-expressing oocytes
T2 sequence (Q334I2 1-640): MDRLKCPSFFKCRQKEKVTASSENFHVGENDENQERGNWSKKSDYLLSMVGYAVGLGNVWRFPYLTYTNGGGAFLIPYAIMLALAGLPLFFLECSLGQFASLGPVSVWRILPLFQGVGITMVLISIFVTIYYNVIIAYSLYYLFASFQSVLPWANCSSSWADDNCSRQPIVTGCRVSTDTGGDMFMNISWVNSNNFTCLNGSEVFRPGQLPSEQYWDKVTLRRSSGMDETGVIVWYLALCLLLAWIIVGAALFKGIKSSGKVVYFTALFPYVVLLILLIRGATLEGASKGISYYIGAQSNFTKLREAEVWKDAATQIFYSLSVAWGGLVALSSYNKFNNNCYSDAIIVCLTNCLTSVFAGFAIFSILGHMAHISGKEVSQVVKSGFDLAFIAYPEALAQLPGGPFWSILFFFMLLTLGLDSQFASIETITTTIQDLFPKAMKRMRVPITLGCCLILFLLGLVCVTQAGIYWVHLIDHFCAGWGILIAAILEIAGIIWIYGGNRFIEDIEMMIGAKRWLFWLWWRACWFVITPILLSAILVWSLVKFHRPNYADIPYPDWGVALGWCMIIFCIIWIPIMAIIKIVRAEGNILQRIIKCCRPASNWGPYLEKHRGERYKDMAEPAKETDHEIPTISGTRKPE
Procedure: Experiments with HRPE cells were repeated at least three times with three independent transfections and transport measurements made in duplicate in each experiment. Electrophysiological measurements of substrate-induced currents were repeated at least three times with separate oocytes. The data are presented as means±S.E.M. of these replicates. The kinetic parameters, Michaelis constant (Kt) and maximal velocity (Vmax) were calculated by fitting the ATB^0,+-specific transport data to the Michaelis-Menten equation describing a single saturable transport system. Na^+ and Cl^−-activation kinetics were analyzed by fitting the ATB^0,+-specific transport data to the Hill equation for the determination of K0.5 values for Na^+ and Cl^− (concentration of Na^+ and Cl^− necessary for half-maximal activation) and the Hill coefficient (nH; the number of Na^+ or Cl^− ions involved in the activation process). The kinetics parameters were first determined by non-linear regression methods and subsequently confirmed by linear regression methods using the commercially-available computer program SigmaPlot, version 6.0 (SPSS Inc., Chicago, Ill., US).
Therefore, it was necessary to determine whether or not the α-carboxyl esters of neutral amino acids are transportable substrates for ATB^0,+. For this purpose, we used the X. laevis oocyte expression system. Cloned rat ATB^0,+ was functionally expressed in oocytes by injection of corresponding cRNA, and the transport of substrates via the transporter was monitored by inward currents when the oocytes were exposed to putative substrates under voltage-clamp conditions.

[4] = biological target: T2, rat ATB^0,+; assay: Inhibition of ATB0,+-mediated 3H-glycine uptake in HRPE cells expressing cloned rat ATB0,+; type: cell-based; details: for Inhibition of ATB0,+-mediated glycine transport (in words): 5 mM
[5] = tested on: MCF7 cells transfected with SMCT1 cDNA; assay: Colony formation assay in MCF7 cells transfected with SMCT1 cDNA; type: cell-based, human; details: SMCT1-expressing MCF7 cells; for IC50: two weeks
[6] = tested on: SW480; details: SW480 cells; cited from earlier work

Compound: C[C@@H](O)C(=O)O [D-lactate]
- Uptake, cRNA-injected oocytes [1]: 1.090 ± 0.041
- Uptake, uninjected oocytes [1]: 0.028 ± 0.002
- K0.5 for SLC5A8 ([2]; four oocytes): 742 ± 330 µM

Compound: C[C@H](O)C(=O)O [L-lactate]
- Fold increase of uptake (cRNA-injected over uninjected) [1]: 44.7 fold
- Uptake, cRNA-injected oocytes [1]: 0.402 ± 0.026
- Uptake, uninjected oocytes [1]: 0.009 ± 0.001
- Inward current induced ([2]; 5 mM, -50 mV, taken as 100%): 489±94 nA
- K0.5 for SLC5A8 ([2]; four oocytes): 235 ± 24 µM

Compound: N[C@@H](CO)C(=O)O [L-serine]
- Inward currents induced in ATB0,+-expressing oocytes (in words) [3]: induced marked inward currents

Compound: [I-].[Na+] [NaI]
- Current in SLC5A8 cRNA-injected oocytes (detectable or not) ([2]; 5 mM): did not induce any detectable current

Compound: CC(=O)OC[C@H](N)C(=O)O [O-acetyl-L-serine]
- Kt of ATB0,+-mediated glycine transport in the presence of inhibitor ([4]; 5 mM inhibitor, HRPE cells): 133 ± 36 µM
- Vmax of ATB0,+-mediated glycine transport in the presence of inhibitor ([4]; 5 mM inhibitor, HRPE cells): 46 ± 9 nmol/10^6 cells/30 minutes
- inhibition at 5000 µM ([4]; 5 mM inhibitor, HRPE cells, read-out: Inhibition of ATB0,+-mediated glycine transport): ~90%
- IC50 ([4]; glycine 10 μM, HRPE cells, read-out: IC50 for inhibition of ATB0,+-mediated glycine transport): 423 ± 72 µM
- Inward currents induced in ATB0,+-expressing oocytes (in words) [3]: induced marked inward currents
- K0.5 (substrate concentration for half-maximal current) [3]: 369 ± 25 µM

Compound: CCCC(=O)OC[C@H](N)C(=O)O [O-butyryl-L-serine, O-Butyryl-L-serine]
- IC50 [4]: 118 ± 8 µM
- Kt of ATB0,+-mediated glycine transport in the presence of inhibitor ([4]; 5 mM inhibitor, HRPE cells): 102 ± 17 µM
- Vmax of ATB0,+-mediated glycine transport in the presence of inhibitor ([4]; 5 mM inhibitor, HRPE cells): 47 ± 5 nmol/10^6 cells/30 minutes
- Inhibition of ATB0,+-mediated glycine transport (in words) ([4]; HRPE cells): inhibited glycine transport significantly
- Hill coefficient for Na+ ([3]; 2 mM substrate, Cl- 100 mM): 1.74±0.23
- K0.5 for Na+ ([3]; 2 mM substrate, Cl- 100 mM): 5.02 ± 0.25 mM
- Hill coefficient for Cl- ([3]; 2 mM substrate, Na+ 100 mM): 1.33±0.02
- K0.5 for Cl- ([3]; 2 mM substrate, Na+ 100 mM): 6.28 ± 0.33 mM
- Inward currents induced in ATB0,+-expressing oocytes (in words) [3]: induced marked inward currents

Compound: CCC(=O)OC[C@H](N)C(=O)O [O-propionyl-L-serine, O-Propionyl-L-Serine]
- IC50 [4]: 332 ± 59 µM
- Kt of ATB0,+-mediated glycine transport in the presence of inhibitor ([4]; 5 mM inhibitor, HRPE cells): 132 ± 37 µM
- Vmax of ATB0,+-mediated glycine transport in the presence of inhibitor ([4]; 5 mM inhibitor, HRPE cells): 61 ± 13 nmol/10^6 cells/30 minutes
- Inhibition of ATB0,+-mediated glycine transport (in words) ([4]; HRPE cells): inhibited glycine transport significantly
- Inward currents induced in ATB0,+-expressing oocytes (in words) [3]: induced marked inward currents
- K0.5 (substrate concentration for half-maximal current) [3]: 305 ± 31 µM

Compound: CCCC(=O)O [butyrate]
- IC50 ([5]; Homo sapiens, 336 h): 37 ± 5 µM

Compound: CCCCCCCC(=O)O [octanoate]
- Relative magnitude of substrate-induced currents ([2]; 5 mM, -50 mV): lowest

Compound: CCCCC(=O)O [pentanoate]
- Relative magnitude of substrate-induced currents ([2]; 5 mM, -50 mV): intermediate

Compound: CCC(=O)O [propionate]
- Inhibition of ATB0,+-mediated glycine transport (in words) ([4]; HRPE cells): did not inhibit glycine transport
- Inward currents induced in ATB0,+-expressing oocytes (in words) [3]: did not induce detectable current
- Fold increase of uptake (cRNA-injected over uninjected) [1]: 15.9 fold
- Uptake, cRNA-injected oocytes [1]: 0.255 ± 0.014
- Uptake, uninjected oocytes [1]: 0.016 ± 0.001
- Charge-to-substrate transfer ratio ([2]; 25 μM substrate, four oocytes): 3.1±0.1
- Hill coefficient (h) for Na+ ([2]; 5 mM substrate): 2.0±0.1
- Relative magnitude of substrate-induced currents ([2]; 5 mM, -50 mV): maximal
- K0.5 for SLC5A8 ([2]; four oocytes): 127 ± 14 µM
- Effect on cell growth / apoptosis [5]: induce apoptosis
- IC50 [5]: 205 ± 40 µM

Compound: CC(=O)C(=O)O [pyruvate]
- IC50 ([5]; Homo sapiens, 336 h): 72 ± 12 µM

Compound: EGF: growth factor used as mitogenic stimulus in SW480 cells
- Cell proliferation [6]: 27%
- Increase of Na+-dependent arginine transport [6]: 66%

Compound: TGF-α: growth factor used as mitogenic stimulus in SW480 cells
- Cell proliferation [6]: 37%
- Increase of Na+-dependent arginine transport [6]: 100%
